The nature of series [1]: Aqueous solubility of Compound 1. The conditions noted are these: under acidic to neutral conditions. The format is physicochemical.
Series [2] is described as follows: Lipophilicity (logP) of Compound 1. The class given is physicochemical.

SMILES strings stand for the structures.

With `Cn1c(=O)n(CCCO)c(=O)c2c1nc(Oc1cccc(OC(F)(F)F)c1)n2Cc1ccc(Cl)cc1` [Compound 1, 7-(4-chlorobenzyl)-1-(3-hydroxypropyl)-3-methyl-8-(3-(trifluoromethoxy)-phenoxy)-3,7-dihydro-1H-purine-2,6-dione], in series [1], the aqueous solubility result was “low aqueous solubility”. Also, the logP in series [2] worked out at 5.2.

For orientation: logP means the decadic logarithm of the partition coefficient of the neutral form, usually between octanol and water.
